From patent EP0423707A2, “Platinum complexes” (Bristol-Myers Squibb Company, priority 1989, dated 1991)

Columns and labels:
[1] = tested on: B16-F10 murine melanoma cells; test: In vitro cytotoxicity, crystal violet staining after 72 hours incubation; assay type: cell-based
Experimental: (§1) The cytotoxic activity of the platinum complexes were evaluated in vitro using B16-F10 murine melanoma cells and HCT-116 human colon carcinoma cells. The B16-F10 cell line was maintained cultured in Eagle's Minimum Essential Medium (MEM) with Earle's salts (Gibco; Grand Island, NY) enriched with 2 millimoles of L-glutamine, 2.06 millimoles of sodium pyruvate, insulin (0.26 units/ml), penicillin/streptomycin (10 units/milliliter and 10 micrograms/milliliter, respectively), MEM non-essential amino acids (0.6% Gibco; Grand Island, NY), and 10% fetal bovine serum (Hyclone; Logan, UT). The HCT-116 cells were grown in McCoy's 5A medium (modified, Gibco; Grand Island, NY) supplemented with 2 millimoles of L-glutamine, 0.12 millimoles of L-serine, 0.17 millimoles of asparagine, 1.5 millimoles of sodium pyruvate, MEM essential amino acids (0.67%, Gibco; Grand Island, NY), MEM vitamins (0.6%, Gibco; Grand Island, NY), fetal calf serum (10%, Hyclone; Logan, UT), and penicillin/streptomycin (10 units/milliliter and 10 micrograms/milliter, respectively). Both cell lines were incubated at 37°C in 5% CO₂/balance air high-humidity incubator.
(§2) Logarithmically growing cells were then harvested by mild trypsinization, and 4000 cells were added to each well of a 96-well microtiter plate (Costar; Cambridge, MA). The plates were incubated at 37°C in 5% CO₂ overnight to permit cell attachment to the plate. The cells were then treated with a platinum complex according to the present invention, cisplatin, or iproplatin and then incubated for 72 hours. After incubating, the plates were inverted and shaken to remove media, drug, and detached cells. Formalin (10%) in phosphate buffered saline was added and the cells fixed for 10 minutes. The fixative was then removed, the plates air dried, stained with 0.0075% crystal violet for 15 minutes, washed twice, and air dried. The stain is solubilized with 0.2 milliliters of 0.2 Molar AcOH/EtOH (1:1) and optical densities determined using a Dynatech MR600 microtiter plate reader (Dynatech; Chantilly, VA). IC50 values are calculated by linear regression analysis of absorption data.
(§3) For the above described in vitro cytotoxicity studies, the compounds are dissolved or suspended, depending on their solubility, in 0.9% Sodium Chloride or 10% ethanol in 0.9% Sodium Chloride. The compounds are prepared for in vivo treatment by dissolving or suspending in water (minimal amounts of Tween 80), 0.9% Sodium Chloride, or 10% ethanol in 0.9% Sodium Chloride. Olive oil or cotton seed oil are used for in vivo studies when the compounds are oil soluble compounds (see, for example, in Table 8, an oil soluble compound in olive oil, Example 9 (2-ethylhexanoate derivative), below).

[2] = tested on: HCT-116 human colon carcinoma cells; test: as above; assay type: cell-based; conditions: HCT-116 cells
Experimental: as §1, §2, §3

[3] = tested on: L1210 murine leukemia; test: Activity against L1210 murine leukemia, intraperitoneal implanted tumor; assay type: in vivo, CDF1 mice; conditions: single intraperitoneal dose on Day 1, at the dose producing the maximum effect, median survival time vs saline controls
Experimental: (§4) The platinum complexes according to the present invention were tested for antitumor activity against L1210 murine leukemia. CDF1 mice weighing 20 grams were inoculated intraperitoneally or intracerebrally with 10⁶ or 10⁵ ascites cells of L1210 leukemia, respectively.
(§5) Drug administration was initiated the day following intra-peritoneal tumor implantation or 3 days following intracerebral implant. The complexes were administered at various dose levels by intraperitoneal injection. Groups of 4 to 6 mice were used for each dose level, and they were treated with a single dose of the complex on the treatment day. A group of 10 saline treated control mice were included in each experiment. Cisplatin and iproplatin treated groups were included as positive controls in each experiment.
(§6) The mice were weighed before treatment and again on day 5 or 6, and the average weight change was used as a measure of toxicity. The animals were observed daily for mortality, and the experiments terminated after 30 days. Antitumor activity was determined based on percent T/C, which is the ratio of the median survival time of the drug treated group to the median survival time of the saline treated control group times 100.
(§7) A complex was considered active if it produced a T/C greater than or equal to 125 percent. […]

[4] = tested on: L1210 murine leukemia; test: Activity against L1210 murine leukemia, intracerebral implanted tumor; assay type: in vivo, CDF1 mice; conditions: single intraperitoneal dose on Day 3, at the dose producing the maximum effect, median survival time vs saline controls
Experimental: as §4, §5, §6, §7

[5] = tested on: M5076 sarcoma; test: Activity against M5076 sarcoma, subcutaneous implant; assay type: in vivo, BDF1 mice; conditions: Days 5, 9, 13, and 17, at the dose producing the maximum effect; for MAXIMUM % T/C: median survival time vs controls; for MAXIMUM T-C: median time for tumors to reach 1 gram relative to controls
Experimental: Platinum complexes according to the present invention were additionally evaluated for further antitumor activity against M5076 sarcoma. BDF1 mice, 8 per group, were inoculated subcutaneously with a fragment of M5076 sarcoma.
Intraperitoneal or intravenous treatment with the complexes was initiated 5 days after implant and was continued on days 9, 13, and 17 for a total of 4 treatments. From 4 to 6 doses were tested for each compound under study.
A saline treated control group and cisplatin treated groups were included in each experiment. The mice were observed daily for survivors, and the experiments terminated after 75-80 days.
Antitumor activity was determined based on a) median survival time of the drug treated mice relative to that of the controls (percent T/C) and b) the median time for tumors to reach 1 gram in drug treated mice relative to the controls (T-C). A complex was considered active if it produced a T-C greater than or equal to 13 days.
as §3

[6] = tested on: P388 murine leukemia; test: Activity against P388 murine leukemia, intravenous inoculation, oral treatment; assay type: in vivo, CDF1 mice; conditions: administered orally (by gavage) 1 time on Day 1; at the dose producing the maximum effect; median survival time vs saline controls
Experimental: The platinum complexes according to the present invention were tested for antitumor activity against P388 murine leukemia. CDF1 mice weighing 20 grams were inoculated intravenously with 10⁶ ascites cells of P388 leukemia.
Drug administration of the platinum complexes was initiated on the day following the intravenous tumor inoculation. The complexes were administered at various dosage levels by oral gavage. Groups of 6 mice were used for each dose level, and they were treated with a single dose of the complex on the treatment day. A group of 10 saline treated control mice were included in each experiment. Cisplatin treated groups were included as positive controls in each experiment.
as §6
A complex was considered active if it produced a T/C greater than or equal to 125 percent.
For the above described in vitro cytotoxicity studies, the compounds are dissolved or suspended, depending on their solubility, in 0.9% Sodium Chloride or 10% ethanol in 0.9% Sodium Chloride. […]

| Molecule | IC50 B16 [1] | IC50 HCT116 [2] | MAXIMUM % T/C [3] | MAXIMUM % T/C [4] [%] | MAXIMUM % T/C ([5]; route ip) | MAXIMUM T-C ([5]; route ip) [days] | MAXIMUM % T/C ([5]; route iv) | MAXIMUM T-C ([5]; route iv) [days] | MAXIMUM % T/C [6] [%] |
| --- | --- | --- | --- | --- | --- | --- | --- | --- | --- |
| N.N.[Cl][Pt][Cl] [Cisplatin] | 5.4-7.3 micrograms/milliter | 4.2-4.5 micrograms/milliter | 143-207% | 114 | 126% | 33 | 114-126% | 25 to 27.3 | 173 |
| Iproplatin | 66.8-243 micrograms/milliter | 20.2-31.2 micrograms/milliter | 143-171% | 157 | 160+^b % | 34.5 | – | – | – |
